In the supplement of paper PMC10307832:

How the values were obtained:
Assay in all cases: relative viability (nuclei count vs DMSO), 5 days (fraction); higher = more cells survive
[1] = compound: C#Cc1cccc(Nc2ncnc3cc(OCCOC)c(OCCOC)cc23)c1 [Erlotinib]
In short: (§1)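 After an overnight hold at 37 °C, lung cancer cell lines in 1536-well plates were pinned with five library-drug doses (not always all listed), each √10 from the next, on vehicle-anchored plates. The cells stayed 5 days without fresh medium, then a one-step fix, permeabilisation and Hoechst stain preceded 4× imaging and MetaXpress nuclear counts. A plate passed only with control CV under 25% and at least one doubling. Viability is the median, over plates, of treated-well nuclei relative to vehicle-well nuclei.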

[2] = compound: N=C(N)NC(=N)NCCc1ccccc1 [Phenformin] (anchor plate); settings: 250 µM
In short: as §1

[3] = compound: O=C(Nc1c[nH]nc1-c1nc2ccc(CN3CCOCC3)cc2[nH]1)NC1CC1 [AT9283]
In short: as §1

Cell Line	relative viability ([1]; 0.02 µM)	relative viability ([1]; 0.2 µM)	relative viability ([1]; 0.6325 µM)	relative viability ([1]; 2 µM)	relative viability [2]	relative viability ([3]; 0.003 µM)	relative viability ([3]; 0.03 µM)	relative viability ([3]; 0.09487 µM)	relative viability ([3]; 0.3 µM)
LXF-289	0.98	1.03	0.971	0.963	0.518	0.995	0.993	0.465	0.22
NCI-H23	0.959	0.757	1.16	0.979	0.749	0.895	0.71	0.432	0.306
NCI-H322M	0.825	0.703	0.574	0.513	0.791	0.817	0.67	0.469	0.474
NCI-H358	1.01	0.631	0.547	0.308	0.359	0.863	0.2	0.192	0.158
NCI-H460	0.994	0.959	1.05	0.96	0.529	0.985	0.931	0.542	0.21
NCI-H520	1.04	0.899	1.1	1.03	0.671	0.76	0.551	0.372	0.223
NCI-H522	0.949	1.03	0.86	0.816	0.639	0.776	0.618	0.611	0.464
NCI-H596	0.992	0.861	0.933	0.91	0.733	0.935	0.955	0.909	0.539
NCI-H647	0.878	0.829	1.08	0.912	0.554	0.902	0.434	0.167	0.11
NCI-H650	0.827	0.974	1.06	0.806	0.464	0.835	0.883	0.633	0.204
NCI-H661	1	0.939	1.01	0.81	0.285	0.981	0.491	0.388	0.39
NCI-H727	0.924	0.768	0.844	0.769	0.578	0.98	0.746	0.502	0.406
NCI-H838	1	0.896	1.14	0.883	0.634	0.969	0.517	0.313	0.253
NCI-H1299	1.03	1.02	1.05	0.992		1.03	0.699	0.473	0.364
NCI-H1355	0.978	0.878	0.956	0.755	0.456	0.956	0.971	0.68	0.197
NCI-H1395	0.865	0.88	1.08	0.981	0.451	0.789	0.662	0.39	0.393
NCI-H1437	1.01	1.03	1.03	0.958	0.296	0.95	0.976	0.55	0.22
NCI-H1563	1.03	0.898		0.953	0.681	0.995	0.815	0.661	0.617
NCI-H1623	0.945	0.723	0.592	0.333	0.577	0.94	0.928	0.545	0.501
NCI-H1648	0.83	0.704	0.608	0.439		0.765	0.886	0.493	0.312
NCI-H1650	0.739	0.756	0.838	0.671	0.465	0.933	0.788	0.447	0.3
NCI-H1651	1.03	0.896	1.04	0.946	0.328	0.951	0.999	0.875	0.455
NCI-H1666	0.973	0.928	0.855	0.728	0.571	0.975	0.847	0.66	0.535
NCI-H1703	1.01	0.911	1.02	0.989		0.957	0.31	0.335	0.28
NCI-H1734	1.02	0.869	0.996	0.934	0.42	0.925	0.47	0.336	0.27
NCI-H1755	1	1.02	1.06	0.935	0.626	1.02	1.01	0.617	0.639
NCI-H1792	0.875	0.821	0.92	0.742	0.343	0.887	0.886	0.943	0.376
NCI-H1793		0.521	0.63	0.455	0.401	0.858	1.03	0.39	0.321
NCI-H1915	1.07	1.01		0.977	0.359	0.925	0.929	0.461	0.256
